Patent US20170281575A1, “BLT2 AGONISTS FOR THE TREATMENT OF PAIN” (FRAUNHOFER-GESELLSCHAFT ZUR FÖERDERUNG DER ANGEWANDTEN …, priority 2014, published 2017)

Legend:
mice = experiment: Thermal pain thresholds after intraplantar injection (Hargreaves, radiant heat); type: in vivo; conditions: CAY10583 10 μl, 5 μM intraplantarly, compared to vehicle
Method: FIG. 5: BLT2 activation decreases thermal pain thresholds in mice. CAY10583 (10 μl, 5 μM) or vehicle was administered intraplantarly. Thermal thresholds were determined at the indicated time points. Data are presented as mean±S.E.M. of 6 animals. Two way ANOVA/Bonferroni *P<0.05, **P<0.005, ****P<0.0005.
All animal experiments were performed according to the recommendations in the Guide for the Care and Use of Laboratory Animals of the National Institutes of Health and approved by the local Ethics Committees for Animal Research (Darmstadt). For all behavioral experiments the inventors used only 6-12 weeks old male C57BL/6N mice purchased from commercial breeding companies (Charles River, Sulzfeld, Germany, Janvier, Le Geneset-Saint-Isle, FR). To compare mechanical thresholds the inventors used age and sex matched littermates as control.
For the determination of mechanical allodynia or thermal hypersensitivity, mice were kept in test cages on an elevated grid for at least 2 hours to allow accommodation. […] The non-injected and injected paws were measured alternately in intervals of 5-10 min. […]

TRPV1 = experiment: Calcium imaging of capsaicin double-stimulated DRG neurons (TRPV1 sensitization); type: cell-based, murine; conditions: for effect on TRPV1 sensitization by LTB4 (100 nM or 1 μM), FIG. 3 legend: U73502 1 μM; for effect on TRPV1 sensitization by LTB4 (100 nM or 1 μM), FIG. 3 legend / effect on TRPV1 sensitization induced by 100 nM LTB4: CAY10583 400 nM; for effect on TRPV1 sensitization induced by 100 nM LTB4: U75302 1 μM, 2 minute pretreatment
Method: (A) DRG neurons were double stimulated with capsaicin (200 nM, 15 s each) and incubated with either vehicle or LTB4 (100 nM) for two minutes prior to the second capsaicin stimulation. (B) Dose-dependent difference in ratio between the first and the second capsaicin response using the same protocol as described in (A). Data represent the mean±SEM of the following number of neurons (n=20-86); ANOVA Kruskal-Wallis test; Dunn's multiple comparisons test *p<0.05, ****p<0.0001 student's t-test.
FIG. 3: BLT1 mediates TRPV1-sensitization and BLT2 mediates TRPV1-desensitization by LTB4. (A) DRG neurons were double stimulated with capsaicin (200 nM, 15 s each) and incubated with either vehicle or the indicated compounds for two minutes prior to the second capsaicin stimulation. […] Data represent mean±SEM 20-105 cells. ANOVA Kruskal-Wallis test; Dunn's multiple comparisons test *p<0.05, **p<0.01, ****p<0.0001 student's t-test; n.s. not significant.
FIG. 4: BLT2 activation inhibits […] by EP4 and Bradykinin. (A) DRG neurons were double stimulated with capsaicin (200 nM, 15 s each) and incubated with either the EP4 agonist ONOae329 (500 nM) or with ONOae329 and CAY10583 (400 nM) together for two minutes prior to the second capsaicin stimulation. (B) Difference in ratio between the first and the second capsaicin response using the same protocol as described in panel A. Data represent the mean±SEM of the following number of neurons: 52 (vehicle), 109 (ONOae329), 106 (ONOae329+CAY10583); One-Way ANOVA, Dunn's multiple comparisons test; **p<0.0096. (C+D) same as panel A+B except that 500 nM bradykinin was used for TRPV1 sensitization. Data represent the mean±SEM of the following number of neurons: 33 (vehicle), 83 (bradykinin), 93 (bradykinin+CAY10583); One-Way ANOVA, Holm-Sidak's multiple comparisons test; *p=0.0126
Murine DRGs were dissected from spinal segments and directly transferred to ice cold HBSS with CaCl2 and MgCl2 (Invitrogen, Carsbad, Calif., USA). Next, isolated DRGs were incubated with collagenase/dispase (500 U/ml Collagenase; 2.5 U/ml Dispase) in neurobasal medium containing L-glutamine [2 mM] penicillin (100 U/ml), streptomycin (100 μg/ml), B-27 and gentamicin (50 μg/ml) (all from Invitrogen, Carlsbad, Calif., USA) at 37° C. for 75 min. After removal of the collagenase/dispase-solution, cells were washed twice with neurobasal medium containing 10% FCS and incubated for 10 min with 0.05% trypsin (Invitrogen, Carlsbad, Calif., USA). The washing steps were repeated and the cells were mechanically dissociated with a 1 ml Gilson pipette. Finally, the neurons were plated on poly-l-lysine (Sigma, Deisenhofen, Germany) coated glass cover slips and incubated with neurobasal medium containing L-glutamine [2 mM] penicillin (100 U/ml), streptomycin (100 μg/ml), B-27 and gentamicin (50 μg/ml) over night until assessment by calcium imaging.
Calcium-Imaging experiments were performed as published previously. Briefly, Leica Calcium-imaging setup was used, consisting of a Leica DMI 4000 b inverted microscope equipped with a DFC360 FX (CCD-) camera, Fura-2 filters and an N-Plan 10×/0.25 Ph1 objective (all from Leica Microsystems, Wetzlar, Germany). Images were taken every 2 seconds and processed with the LAS AF-software. For each experiment the inventors chose an area with large cell numbers and monitored 40-110 cells simultaneously. Calcium-Imaging experiments were performed using DRG-neurons 24-48 hours after preparation. […]

[1] = DRG neurons, capsaicin 200 nM, LY2552833 10 μM

CCCCC(=O)N(Cc1ccc(-c2ccccc2C(=O)O)cc1)c1ccccc1 [CAY10583, 4′-[[(1-oxopentyl)phenylamino]methyl]-[1,1′-biphenyl]-2-carboxylic acid]
thermal pain thresholds (mice): significantly increase
effect on bradykinin-induced sensitization of TRPV1 through PKC (TRPV1; DRG neurons, 500 nM bradykinin with CAY10583 400 nM): significantly decreased
effect on TRPV1 sensitization by LTB4 (100 nM or 1 μM), FIG. 3 legend (TRPV1; DRG neurons, LY2552833 10 μM): reduced
effect by itself on capsaicin-induced TRPV1 activation (TRPV1; DRG neurons, capsaicin 200 nM, CAY10583 400 nM alone): no effect
effect on TRPV1 sensitization induced by 100 nM LTB4 (TRPV1; [1]): abolished
effect on ONOae329-induced TRPV1 sensitization (TRPV1; murine DRG neurons, ONOae329 500 nM together with CAY10583 400 nM): abolished

CCCCC/C=C\C[C@@H](O)/C=C/C=C/C=C\[C@@H](O)CCCC(=O)O [LTB4, Leucotriene (LT) B4]
TRPV1 sensitization in DRG neurons, dose dependence, FIG. 1 legend (TRPV1; DRG neurons, capsaicin 200 nM double stimulation): dose dependently sensitizes TRPV1
enhanced response (TRPV1 sensitization) at higher LTB4 concentrations (TRPV1; murine DRG neurons, 200-1000 nM LTB4 prior to second capsaicin stimulation): reduced
capsaicin-induced intracellular calcium increases (TRPV1; murine DRG neurons, preincubation with 100 nM LTB4 for two minutes prior to second capsaicin (200 nM) stimulation): doubled

CCc1cc(C(C)=O)c(O)cc1OCCCCCC(C)(C)c1nn[nH]n1 [LY2552833]
effect on TRPV1 sensitization by LTB4 (100 nM or 1 μM), FIG. 3 legend (TRPV1; DRG neurons, LY2552833 10 μM): increases TRPV1 sensitization
effect on TRPV1 sensitization by 1000 nM LTB4 (TRPV1; [1]): increased
effect on TRPV1 sensitization induced by 100 nM LTB4 (TRPV1; [1]): no significant effect

COCc1ccccc1CC[C@H](O)/C=C/[C@H]1[C@H](O)CC(=O)[C@@H]1SCCCSCC(=O)O [ONOae329]
sensitization of TRPV1 responses to capsaicin (TRPV1; murine DRG neurons, pretreatment with ONOae329 500 nM): strong sensitization

CCCCC/C=C\C[C@@H](O)/C=C/c1cccc(C[C@@H](O)CCCCO)n1 [U75302, 6-(6-(3R-hydroxy-1E,5Z-undecadien-1-yl)-2-pyridinyl)-1,5S-hexanediol]
effect on TRPV1 sensitization by LTB4 (100 nM or 1 μM), FIG. 3 legend (TRPV1; DRG neurons, LY2552833 10 μM): reduced
effect on TRPV1 sensitization induced by 100 nM LTB4 (TRPV1; [1]): able to abolish
